Structures are written as SMILES. Converted amounts (≈) assume the structure as drawn. Like-named read-outs stand apart in the source and are kept apart here.

A short description of data set [1]: Ion permeability and rupture of planar lipid bilayers. Here is the method: (§1) Synthetic 1,2-diphytanoyl-sn-glycero-3-phosphocholine (DPhPC) and 1,2-diphytanoyl-sn-glycero-3-phospho-(1′-rac-glycerol) (DPhPG) were purchased from Avanti® Polar Lipids (Avanti Polar Lipids, Inc., Alabaster, AL, USA). A KCl solution (0.1 M) was buffered with 5 mM HEPES, pH 7.4. Bilayer lipid membranes were prepared from DPhPC or DPhPG using a monolayer-opposition technique on a 50 µm-diameter aperture in a 10 µm-thick Teflon film separating the cis- and trans-compartments of the Teflon chamber. Experiments were performed in chambers containing 0.1 M KCl, 5 mM Hepes-KOH, pH 7.4.
(§2) The test compounds (4, 20, 22) were added to the cis-chamber as 10 mg/mL solutions in ethanol (to mimic the physiologically relevant conditions) up to the final concentrations and the effects of the compounds on the ion permeability of the model lipid membranes were studied. Ag/AgCl electrodes with 1.5% agarose/2 M KCl bridges were used to apply the transmembrane voltage (V) and measure the transmembrane current (I). ‘Positive voltage’ refers to the case in which the cis-side compartment is positive with respect to the trans-side. All experiments were performed at room temperature.
(§3) The current was measured using an Axopatch 200B amplifier (Molecular Devices, LLC, Orlean, CA, USA) in voltage clamp mode. Data were digitized using a Digidata 1440A and analyzed using pClamp 10.0 (Molecular Devices, LLC, Orlean, CA, USA) and Origin 8.0 (OriginLab Corporation, Northampton, MA, USA). The data were acquired at a sampling frequency of 5 kHz using low-pass filtering at 200 Hz.
(§4) The threshold concentrations (Cbr) of the derivatives required to rupture the bilayers composed of DPhPC or DPhPG at a transmembrane voltage of 100 mV were determined. Cbr-values were averaged from 3 to 4 bilayers and presented as mean ± standard error (p ≤ 0.05).

Data set [2] relates to Staphylococcus aureus (ATCC 43300) (MRSA). Kind of data set: Antibacterial whole-cell growth inhibition (MIC, CO-ADD). To be noted: for MIC: S. aureus (MRSA) ATCC 43300, inhibition ≥80%, two replicates (n = 2). The class given is cell-based. The protocol: Antibacterial screening was carried out by the serial dilution method. All bacteria were cultured in the cation-adjusted Mueller Hinton broth (CAMHB) at 37 °C overnight. A sample of each culture was then diluted 40-fold in fresh broth and incubated at 37 °C for 1.5–3 h. The resultant mid-log phase cultures were diluted (CFU/mL measured by OD600) and then added into each well containing a test compound, giving a cell density of 5 × 10^5 CFU/mL and a total volume of 50 µL. All the plates were covered and incubated at 37 °C for 18 h without shaking.
Inhibition of bacterial growth was determined by measuring the absorbance at 600 nm (OD600) with a Tecan M1000 Pro monochromator plate reader. […]

The next data set in a line: Hemolysis assay. The class given is cell-based, human. To be noted: human, Dmax (maximal percentage of hemolysis). Here is the method: (§5) Human whole blood was washed three times with 3 volumes of 0.9% NaCl and then resuspended in the same medium to a concentration of 0.5 × 10^8 cells/mL, as determined by manual cell count in a Neubauer hemocytometer. The washed cells were then added to 384-well plates containing the test compounds to a final volume of 50 µL. After shaking on a plate shaker for 10 min, the plates were incubated for 1 h at 37 °C. After incubation, the plates were centrifuged at 1000× g for 10 min to pellet the cells and debris; 25 µL of the supernatant was then transferred to a polystyrene 384-well assay plate.
(§6) Hemolysis was monitored by measuring the supernatant absorbance at […] (OD405). The absorbance was measured using a Tecan M1000 Pro monochromator plate reader. HC10 and HC50 (10% and 50% hemolysis concentrations, respectively) were calculated by curve fitting of inhibition vs. log(concentration) using a sigmoidal dose–response function with variable fitting values for top, bottom, and slope. In addition, the maximal percentage of hemolysis is reported as DMax, indicating any compounds with partial hemolysis. The curve fitting was implemented using Pipeline Pilot’s dose–response component. […] Any value with > indicated sample with no activity (low DMax value) or samples with HC10 values above the maximum tested concentration (higher DMax value).
(§7) In addition, samples were flagged as partially hemolytic if DMax ≥ 50%, even for HC10 > the maximum tested concentration. […]

The test system of the next data set is human red blood cells. The experiment in a line: Hemolysis assay. The class given is cell-based. The conditions noted are these: human, 1 h. Here is the method: as §5, §6, §7
Another data set is described as follows: in vitro. The class given is cell-based, human. The conditions noted are these: human, CC50. The protocol:
(§8) HEK293 cells were counted manually in a Neubauer hemocytometer and then plated in 384-well plates containing the test compounds to give a density of 5000 cells per well in a final volume of 50 µL. DMEM supplemented with 10% FBS was used as the growth medium, and the cells were incubated together with the compounds for 20 h at 37 °C in 5% CO2.
(§9) The cytotoxicity (or cell viability) was measured by fluorescence, ex: 560/10 nm, em: 590/10 nm (F560/590), after addition of 5 µL of 25 µg/mL resazurin (2.3 µg/mL final concentration) and after incubation for further 3 h at 37 °C in 5% CO2. The fluorescence intensity was measured using a Tecan M1000 Pro monochromator plate reader with automatic gain control. The CC50 (50% cytotoxicity concentration) values were calculated by curve fitting of inhibition vs. log(concentration) using a sigmoidal dose–response function, with variable fitting values for bottom, top, and slope. In addition, the maximal percentage of cytotoxicity is reported as DMax, indicating any compounds with partial cytotoxicity. The curve fitting was implemented using Pipeline Pilot’s dose–response component. The results were similar to those obtained by other curve-fitting tools, such as GraphPad’s Prism and IDBS’s XlFit. Any value with > indicated samples with no activity (low DMax value) or samples with CC50 values above the maximum tested concentration (higher DMax value).
(§10) In addition, samples were flagged as partially cytotoxic if DMax ≥ 50%, even for CC50 > the maximum tested concentration.
(§11) Tamoxifen served as a positive cytotoxicity standard. Melittin was used as a positive hemolytic standard.

The test system of data set [3] is human embryonic kidney cell line HEK293 (ATCC CRL-1573). The experiment in a line: in vitro. The format is cell-based. The conditions noted are these: human, 20 h. The protocol:
as §8, §9, §10, §11

Data set [4] can be described thus: Ion permeability, pore formation and rupture of planar lipid bilayers. The protocol:
as §1, §2, §3, §4
Pore-forming ability of compound 22 was studied by applying transmembrane voltages in a range of 50–200 mV with 50 mV step and by increasing the derivative concentration in the bilayer bathing solution from 10 to 150 µg/mL.

A short description of data set [5]: Measurement of the membrane boundary potential (K+-nonactin conductance). The conditions noted are these: DPhPG, 0.1 M KCl, pH 7.4, 50 mV. Here is the method:
Measurement of the membrane boundary potential. Virtually solvent-free planar lipid bilayers were made of DPhPC or DPhPG as described above. After the membrane was completely formed and stabilized and its stability was assessed by applying voltages in a range from −200 to 200 mV with a 50 mV step for 5–10 min, stock solutions of nonactin A (7 μg/mL in ethanol) were added to the bathing solution (0.1 M KCl, 5 mM HEPES, pH 7.4) in both chamber compartments to obtain a final concentration ranging from 0.1 to 1 μM.
Test derivatives (4, 20, 22) as 10 mg/mL solutions in ethanol were added to both compartments in a concentration range from 5 µg/mL to Cbr in increments of 25 µg/mL.
The conductance of the bilayers was determined by measuring the membrane conductance (G) at a constant transmembrane voltage of 50 mV. In the subsequent calculations, the membrane conductance was assumed to be related to the membrane boundary potential (φb), the potential drop between the aqueous solution and the membrane hydrophobic core, by the Boltzmann distribution (1) Gm/Gm0=exp(eΔφb/kT) where Gm and Gm^0 are the steady-state membrane conductances induced by K^+-nonactin in the presence and absence of test compounds, respectively; e, k, and T have their usual meanings.
The changes in the membrane boundary potential for the defined experimental conditions were averaged from 4 bilayers and presented as mean ± standard deviation (p ≤ 0.05).

For `COC(=O)/C(CCC=C(C)C)=C1\[C@@H](OC(C)=O)C[C@@]2(C)[C@@H]1C[C@@H](O)[C@@H]1[C@@]3(C)CC[C@H](NC(=O)c4cnccn4)[C@@H](C)C3CC[C@@]12C` (stereo partly drawn) [Compound 4, Methyl (2Z)-2-{(3β,4α,8α,11α,14β,16β)-16-(acetyloxy)-11-hydroxy-4,8,10,14-tetramethyl-3-[(pyrazin-2-ylcarbonyl)amino]gonan-17-ylidene}-6-methylhept-5-enoate], the melting point (usually the temperature, or range, at which the solid turns liquid) fell in the range of 151 to 153 °C. The “concentration up to which addition did not increase the ion permeability of the lipid bilayers” value in data set [1] (DPhPC uncharged membranes) is at most 225 µg/mL. The “Cbr (threshold concentration required to rupture the bilayer)” value in data set [1] (DPhPC, 0.1 M KCl, pH 7.4, 100 mV) came to 225 ± 15 µg/mL. Also, in data set [2], the MIC (commonly the lowest concentration found to suppress growth) was ≤0.25 ≤0.25 µg/mL. Besides, in data set [2] (S. aureus (MRSA), primary screen at 32 μg/mL), the “primary screening: antimicrobial activity” value is “showed antimicrobial activity”. For the same compound, the MIC in data set [2] (Staphylococcus aureus, read-out: MIC) is 0.25 µg/mL (≈ 0.393 µM). The hemolysis at 1 h in “Hemolysis assay” was determined as 3.9%. Moreover, the HC50 in the data set on human red blood cells is given as >32 >32 µg/mL. In the data set “in vitro”, it took 24 µg/mL (≈ 37.7 µM) to reach half-maximal cytotoxicity (CC50 at 20 h). Moreover, the CC50 (as a rule, the concentration at which the toxic effect on the cells reaches its halfway point) in data set [3] is above 32 µg/mL. In data set [4] (DPhPG), the “concentration up to which ionic permeability of lipid bilayers is not affected” value was “up to 170 μg/mL”. Also, in [4] (DPhPG bilayers), the “formation of ion-permeable pores” value was “not able to form transient ion-permeable pores”. In addition, the “Cbr (threshold concentration required to rupture the bilayer)” value in data set [4] (DPhPG, 0.1 M KCl, pH 7.4, 100 mV) came to 163 ± 11 µg/mL. Moreover, the “−Δφb(max) (maximum decrease in the membrane boundary potential)” value in data set [5] amounted to 21 ± 5 mV.

The values above are taken from paper PMC10056636, “3-Amino-Substituted Analogues of Fusidic Acid as Membrane-Active Antibacterial Compounds” (Membranes, 2023).
